Laboratory results taken from patent US20260092086A1, “ANTIMICROBIAL LASSO PEPTIDES” (priority 2022, published 2026).
“Also recorded” adds a separate entry of the source. Where a SMILES comes first, the peptide text is derived from it.

Legend:
[1] = Stability of variants: threaded-to-unthreaded peptide in supernatant extract by LC-MS; type: physicochemical; conditions: for threaded versus unthreaded peptide in supernatant extract (stability against unthreading): heating and carboxypeptidase assays, compared with wild-type; for Stability Relative to WT: ratio of threaded-to-unthreaded peptide in supernatant extract after purification
[2] = system: Enterobacter amnigenus ATCC 33072; type: cell-based; conditions: against Enterobacter amnigenus (FIG. 28, peptides at 10 μM; Y10A FIG. 34)
Procedure: Cloacaenodin was evaluated against several common laboratory strains as well as commercially acquired strains using a spot-on-lawn assay.^45 Strains were streaked out onto LB agar plates and incubated overnight at their recommended temperatures. A single colony was then used to inoculate an overnight culture in 5 mL of LB broth. After shaking at 250 rpm at the recommended temperature for each strain, 50 μL of the overnight culture was used to inoculate 5 mL of LB broth (volume ratio 1:100). These cultures were grown for a few hours until they reached the exponential phase (OD600˜0.4-0.6) before being added to 10 mL of soft M63 agar at a final cell density of 10^7 CFUs/mL, or 10^8 CFUs total in 10 mL. The M63 soft agar was composed of 2 g/L of (NH4)2SO4 (EMD MilliporeSigma), 13.6 g/L of KH2PO4 (Fisher), 40 mg/L of each of the 20 common amino acids, 0.2% glucose (Sigma), 0.00005% w/v thiamine hydrochloride (Sigma), and 0.65% w/v bacteriological-grade agar (Apex Bioresearch). […] Upon solidification, 10 μL of purified cloacaenodin in water at two-fold dilutions were then spotted onto the agar and allowed to dry. The plates were incubated overnight at the strains' recommended temperatures and analyzed the next morning for activity. The MIC is defined as the last dilution where a spot was visible.

Thermolysin = molecular target: T1, Thermolysin (Geobacillus stearothermophilus, UniProt P43133); assay: Protease digestion, thermolysin; type: in vitro ADME; conditions: 50 μM peptide, 30° C., about 1 hour, LC-MS
T1 construct: purchased Sigma-Aldrich
Procedure: Thermolysin from Geobacillus stearothermophilus (Sigma-Aldrich) was first resuspended in 50 mM Tris, 0.5 mM CaCl2). The enzyme was then added to 50 μM peptide samples at a final concentration of about 0.04 mg/mL in a buffer of 50 mM Tris, 0.5 mM CaCl2), pH 8. The reactions were then allowed to incubate at 30° C. for about 1 hour before quenching with 1% formic acid. An aliquot was then injected onto LC-MS for analysis.

[3] = system: Escherichia coli XL-1 Blue; assay: Intracellular toxicity: IPTG-induced expression from plasmid lacking cloD; type: cell-based; conditions: IPTG induction
Procedure: After characterizing the structure and proteolytic resistance of cloacaenodin, cloacaenodin's inhibition of bacterial growth was tested. As a preliminary test of antimicrobial activity, a version of the expression plasmid from which the cloD gene was removed was cloned, so that the lasso peptide could not be exported by the Escherichia coli upon isopropyl β-D-1-thiogalactopyranoside (IPTG)-induced expression.
Cloacaenodin variants were constructed using site-directed mutagenesis. Mutant precursor genes were amplified from the wild-type precursor in pAK2 using mutagenic primers. Following PCR amplification of the mutated precursor gene, the purified PCR product was digested and ligated into pAK2 with the EcoRI and HindIII restriction sites. For the pMP3 plasmid for deletion of the cloD gene, the D gene was first disrupted by digestion of pAK2 with BamHI and NcoI, which removed the entire cloD gene and the C-terminal portion of the cloC gene. The digested plasmid was then ligated with an insert that restored the C-terminal portion of the cloC gene. All mutants were sequence confirmed by Genewiz (now Azenta) before use.

[4] = system: Enterobacter hormaechei BWH39; conditions: strain BWH39; cited from earlier work
[5] = system: Enterobacter hormaechei BIDMC87; conditions: strain BIDMC87; cited from earlier work
[6] = system: Enterobacter cloacae BIDMC120; conditions: strain BIDMC120; cited from earlier work
[7] = system: Enterobacter ludwigii MGH216; conditions: strain MGH216; cited from earlier work
[8] = system: Enterobacter kobei MGH178; conditions: strain MGH178; cited from earlier work
[9] = system: Enterobacter hormaechei UCI35; conditions: strain UCI35; cited from earlier work
[10] = system: Enterobacter roggenkampii MGH239; conditions: strain MGH239; cited from earlier work
[11] = system: Enterobacter cloacae UCI102; conditions: strain UCI102; cited from earlier work
[12] = system: Enterobacter asburiae UCI193; conditions: strain UCI193; cited from earlier work
[13] = system: Enterobacter asburiae MGH243; conditions: strain MGH243; cited from earlier work
[14] = system: Enterobacter cloacae MGH3; conditions: strain MGH3; cited from earlier work
[15] = system: carboxypeptidase B and carboxypeptidase Y; assay: Carboxypeptidase digestion; type: in vitro ADME
Procedure: Carboxypeptidase assays were done in 50 μL of 50 mM sodium acetate, pH 6.0 with 1 unit each of carboxypeptidase B and carboxypeptidase Y. Reactions were incubated overnight at 20° C. for 16 hours and then quenched with 1% formic acid. An aliquot of the reaction was then injected onto LC-MS to compare with an untreated control.

T1 sequence (P43133 236-551): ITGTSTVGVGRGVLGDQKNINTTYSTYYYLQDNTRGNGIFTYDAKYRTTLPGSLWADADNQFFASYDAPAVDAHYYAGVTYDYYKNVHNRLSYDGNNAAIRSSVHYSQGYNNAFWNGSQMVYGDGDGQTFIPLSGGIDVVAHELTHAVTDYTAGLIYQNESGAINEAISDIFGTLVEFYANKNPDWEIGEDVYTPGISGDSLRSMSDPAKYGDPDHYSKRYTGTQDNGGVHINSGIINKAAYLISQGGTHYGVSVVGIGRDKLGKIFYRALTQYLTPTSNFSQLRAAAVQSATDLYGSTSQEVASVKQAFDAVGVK

With “GHSVDRIPEYFGPPGLPGPVLWYS [Cloacaenodin F22W]” the “threaded versus unthreaded peptide in supernatant extract (stability against unthreading)” value [1] was “comparable levels of unthreaded peptide”, the “Stability Relative to WT” value [1] was “Comparable” and the “Bioactivity Relative to WT” value [2] was “Comparable”.
In the case of “GHSVDRIPEYFGPPGLPGPVLFYY [Cloacaenodin S24Y, 114]”, the “Bioactivity Relative to WT” value [2] is reported as “Comparable”.
In the case of “GHSVDRIAEYFGPPGLPGPVLFYS [Cloacaenodin P8A, 109]”, the “threaded versus unthreaded peptide in supernatant extract (stability against unthreading)” value [1] is reported as “a dramatic decrease in the ratio of threaded-to-unthreaded peptide in the extract for a cloacaenodin P8A variant (FIG. 32) was not observed” and the “Stability Relative to WT” value [1] is reported as “Comparable”.
With “GHSVDRIPEYFGPPGLPGPVLFYC [Cloacaenodin S24C, 117]” the “Bioactivity Relative to WT” value [2] was “Less”.
For `CC[C@H](C)[C@@H]1NC(=O)[C@H](CCCNC(=N)N)NC(=O)[C@H](CC(=O)O)NC(=O)[C@H](C(C)C)NC(=O)[C@H](CO)NC(=O)[C@H](Cc2c[nH]cn2)NC(=O)CNC(=O)CC[C@@H](C(=O)N[C@@H](Cc2ccc(O)cc2)C(=O)N[C@@H](Cc2ccccc2)C(=O)NCC(=O)N2CCC[C@H]2C(=O)N2CCC[C@H]2C(=O)NCC(=O)N[C@@H](CC(C)C)C(=O)N2CCC[C@H]2C(=O)NCC(=O)N2CCC[C@H]2C(=O)N[C@H](C(=O)N[C@@H](CC(C)C)C(=O)N[C@@H](Cc2ccccc2)C(=O)N[C@@H](Cc2ccc(O)cc2)C(=O)N[C@@H](CO)C(=O)O)C(C)C)NC(=O)[C@@H]2CCCN2C1=O` [unthreaded cloacaenodin] (HELM PEPTIDE1{G.H.S.V.D.R.I.P.E.Y.F.G.P.P.G.L.P.G.P.V.L.F.Y.S}$PEPTIDE1,PEPTIDE1,1:R1-9:R3$$$V2.0; C-terminus assumed; bridges inferred), the proteolysis by thermolysin (Thermolysin) was “cleavage of the unthreaded peptide both in its linear and ring segments; also recorded: can be cleaved by thermolysin”.
In the case of “GHSVDRIPEAFGPPGLPGPVLFYS [Cloacaenodin Y10A, 118]”, the “intracellular toxicity (growth of E. coli on IPTG without CloD)” value [3] is reported as “not toxic intracellularly”, the “intracellular toxicity (growth of E. coli on IPTG without CloD)” value ([3]; listed as Y10A) is reported as “cells could still grow” and the “Bioactivity Relative to WT” value [2] is reported as “Much less”.
For `C[C@@H](O)[C@H]1C(=O)N2C(C(=O)O)=C(S[C@@H]3CN[C@H](C(=O)N(C)C)C3)[C@H](C)[C@H]12` [Meropenem], the “Meropenem MIC” value [4] is given as 2 µg/mL, the “Meropenem MIC” value [5] is given as 16 µg/mL and the “Meropenem MIC” value [6] is given as 4 µg/mL. For the same compound, the “Meropenem MIC” value [7] was ≤0.25 µg/mL, the “Meropenem MIC” value [8] was ≤0.25 µg/mL and the “Meropenem MIC” value [9] was 4 µg/mL. The “Meropenem MIC” value [10] was 1 µg/mL, the “Meropenem MIC” value [11] was 0.063 µg/mL and the “Meropenem MIC” value [12] was 23 µg/mL. The “Meropenem MIC” value [13] was 16 µg/mL and the “Meropenem MIC” value [14] was ≥16 µg/mL.
For “GHSVDRIPEYFGPPGLPGPVLFYT [Cloacaenodin S24T, 116]”, the “Bioactivity Relative to WT” value [2] was “Less”.
For `CC[C@H](C)[C@@H]1NC(=O)[C@H](CCCNC(=N)N)NC(=O)[C@H](CC(=O)O)NC(=O)[C@H](C(C)C)NC(=O)[C@H](CO)NC(=O)[C@H](Cc2c[nH]cn2)NC(=O)CNC(=O)CC[C@@H](C(=O)N[C@@H](Cc2ccc(O)cc2)C(=O)N[C@@H](Cc2ccccc2)C(=O)NCC(=O)N2CCC[C@H]2C(=O)N2CCC[C@H]2C(=O)NCC(=O)N[C@@H](CC(C)C)C(=O)N2CCC[C@H]2C(=O)NCC(=O)N2CCC[C@H]2C(=O)N[C@H](C(=O)N[C@@H](CC(C)C)C(=O)N[C@@H](Cc2ccccc2)C(=O)N[C@@H](Cc2ccc(O)cc2)C(=O)NCC(=O)O)C(C)C)NC(=O)[C@@H]2CCCN2C1=O` [Cloacaenodin S24G] (HELM PEPTIDE1{G.H.S.V.D.R.I.P.E.Y.F.G.P.P.G.L.P.G.P.V.L.F.Y.G}$PEPTIDE1,PEPTIDE1,1:R1-9:R3$$$V2.0; C-terminus assumed; bridges inferred), the proteolysis by carboxypeptidase ([15]; pH 6) was “susceptibility to carboxypeptidase”.
For “GHSVADRIPEYFGPPGLPGPVLFYS [Cloacaenodin 10-membered ring]”, the proteolysis by carboxypeptidase ([15]; carboxypeptidase B and Y, pH 6.0, 20° C., 16 hours, LC-MS) was “susceptible to degradation by carboxypeptidase” and the “Stability Relative to WT” value [1] was “Less”.
With “GHSVDRIPEYFGPPGLPGPVLFYA [Cloacaenodin S24A, 113]” the “Bioactivity Relative to WT” value [2] was “Comparable”.
